{"source": "patent US9056136B2", "about": "“Weakly basic 2-nitroimidazoles for the non-invasive detection of tissue hypoxia” (Natural Pharmacia International, Inc., priority 2006, dated 2015)", "key": {"[1]": {"details": "humans; cited from earlier work"}, "V79 cells": {"system": "V79 cells", "details": "cited from earlier work"}, "[2]": {"system": "Chinese hamster V79-4 lung fibroblasts", "experiment": "pH-dependent binding to anoxic V79-4 cells, ELISA of cell lysates", "format": "cell-based", "details": "for binding (ng/g protein ± SE): anoxic V79 cells, 200 uM, 3 hours, 5% CO2+95% nitrogen", "description": "Weakly basic 2-nitroimidazole hypoxia compounds of the invention are more sensitive detectors of hypoxia in cells at high pH than are 2-nitroimidazoles that lack a weakly basic moiety, such as CCI-103F. pH-dependent binding for weakly basic pimonidazole was compared to that for CCI-103F in Chinese hamster V79-4 lung fibroblasts under conditions of short-term anoxia. The pH range used (6.4 to 7.4) encompasses about 90% of extracellular pHs measured in human tumors. Eagle's minimum essential medium (MEM) containing 4.5 g/L glucose, but no carbonate, was warmed to 37° C. in a warm room and adjusted to pH 6.4, 6.8 and 7.4 by the addition of sodium bicarbonate under a stream of 5% CO2+95% nitrogen. Fetal bovine serum (FBS) was added to produce an Eagle's pH adjusted MEM containing 10% FBS. Attached V79-4 cells were harvested with EDTA-trypsin and diluted in 25 mL of the pH adjusted MEM at a concentration of 3×10^5 cells/mL. To this solution was added an amount of a stock solution of pimonidazole HCl or CCI-103F to produce a final concentration of 200 uM. The cell solution was then incubated under an atmosphere of 5% CO2+95% nitrogen with agitation for 3 hours. Cell lysates were analyzed by ELISA and the data normalized to protein content. The experiments for both markers were performed in triplicate."}, "[3]": {"details": "cited from earlier work"}, "central nervous system": {"system": "central nervous system", "details": "clinical use, 0.5 g/m2; 750-1000 mg/patient; 50% of the maximally tolerated single dose; cited from earlier work"}, "[4]": {"system": "spontaneous canine tumors", "experiment": "immunostaining of hypoxia marker adducts in biopsies of spontaneous canine tumors", "format": "in vivo, dogs", "description": "Weakly basic 2-nitroimidazole hypoxia compounds of the invention are more efficient at detecting fluctuating hypoxia than are compounds that lack a weakly basic moiety when measured in large spontaneous canine tumors analogous to those occurring in humans. The hydrochloride salt of the weakly basic hypoxia marker, pimonidazole, was given to 12 dogs at a dosage of 0.5 gm/m^2 body surface area. Seven hours later, all 12 dogs received CCI-103F, a marker that lacks a weakly basic moiety. Two to four, widely separated biopsy samples were taken from viable regions in each tumor and immediately placed in cold 10% neutral buffered formalin. The specimens were fixed for 18-24 hours at 4° C. and then transferred into cold 70% ethanol and stored at 4° C. until mounted into paraffin blocks. Sections from formalin-fixed paraffin-embedded biopsy samples were immunostained for pimonidazole and CCI-103F binding using primary rabbit polyclonal antisera to pimonidazole and CCI-103F adducts respectively. Immunostained sections were exhaustively scanned at 400× by means of an Axioskop 50 microscope and Fluar objective and the percent immunostaining for pimonidazole and CCI-103F adducts was measured."}}, "note": "Read-outs that look alike come from different tables or passages of the source.", "data": [{"smiles": "COCC(O)Cn1ccnc1[N+](=O)[O-]", "note": "(centres unmarked) [misonidazole]", "values": [{"measurement": "plasma half-life (t1/2)", "setting": "[1]", "value": 9.3, "unit": "h"}]}, {"smiles": "O=C(Cn1ccnc1[N+](=O)[O-])NCC(F)(F)C(F)(F)F", "note": "[EF5, 2-(2-nitro-1H-imidazol-1-yl)-N-(2,2,3,3-pentafluoropropyl)-acetamide]", "values": [{"measurement": "plasma half-life (t1/2)", "setting": "[1]", "value": "11.7 ± 2.7", "unit": "h"}]}, {"smiles": "O=[N+]([O-])c1nccn1CC(O)COC(C(F)(F)F)C(F)(F)F", "note": "(centres unmarked) [CCI-103F]", "values": [{"measurement": "Ci/Ce in V79 cells", "setting": "V79 cells; pH 6.4", "value": "~1.0"}, {"measurement": "Ci/Ce in V79 cells", "setting": "V79 cells; pH 6.8", "value": "~1.0"}, {"measurement": "Ci/Ce in V79 cells", "setting": "V79 cells; pH 7.4", "value": "~1.0"}, {"measurement": "binding (ng/g protein ± SE)", "setting": "[2]; pH 6.4", "value": "90 ± 7", "unit": "ng/g protein"}, {"measurement": "binding (ng/g protein ± SE)", "setting": "[2]; pH 6.8", "value": "118 ± 17", "unit": "ng/g protein"}, {"measurement": "binding (ng/g protein ± SE)", "setting": "[2]; pH 7.4", "value": "125 ± 5", "unit": "ng/g protein"}]}, {"smiles": "O=[N+]([O-])c1nccn1CC(O)CN1CCCCC1", "note": "(centres unmarked) [pimonidazole, 1-(2-hydroxy-3-piperidinopropyl)-2-nitroimidazole]", "values": [{"measurement": "Ci/Ce in V79 cells", "setting": "V79 cells; pH 6.4", "value": 1.0}, {"measurement": "Ci/Ce in V79 cells", "setting": "V79 cells; pH 6.8", "value": 1.6}, {"measurement": "Ci/Ce in V79 cells", "setting": "V79 cells; pH 7.4", "value": 3.3}, {"measurement": "plasma half-life (t1/2)", "setting": "[1]", "value": "5.1 ± 0.8", "unit": "h"}, {"measurement": "pKa", "setting": "[3]", "value": 8.7}, {"measurement": "central nervous system (CNS) effects", "setting": "central nervous system", "value": "extremely low frequency of even the mildest of central nervous system (CNS) effects"}, {"measurement": "binding (ng/g protein ± SE)", "setting": "[2]; pH 6.4", "value": "144 ± 15", "unit": "ng/g protein"}, {"measurement": "intensity of binding compared with CCI-103F", "setting": "[2]; pH 6.4 to 7.4, anoxic V79-4 cells", "value": "greater than that for CCI-103F at all pH levels tested"}, {"measurement": "binding (ng/g protein ± SE)", "setting": "[2]; pH 6.8", "value": "293 ± 19", "unit": "ng/g protein"}, {"measurement": "binding (ng/g protein ± SE)", "setting": "[2]; pH 7.4", "value": "363 ± 22", "unit": "ng/g protein"}, {"measurement": "extent of immunostaining relative to CCI-103F, factor on average", "setting": "[4]; 12 dogs, pimonidazole HCl 0.5 gm/m^2, CCI-103F seven hours later, paired t test", "value": 1.25}, {"measurement": "extent of binding relative to CCI-103F within a single tumor", "setting": "[4]; regions of one canine tumor, FIGS. 1A-1D", "value": "greatly exceeded it in other regions"}]}]}
